# Test results published in US20260365663A1, “EMOPAMIL-BINDING PROTEIN INHIBITORS AND USES THEREOF” (BIOGEN MA INC., priority 2022, published 2026).
# Where two headings read alike, the source gives them in different places.
# Molecular target: T1, EBP (Homo sapiens, UniProt Q15125)
# T1 construct: HEK293T cells were utilized as the source of EBP enzyme; endogenous in cells; host or cells: HEK293T
# Assay: EBP Functional Assay (EBP immunoaffinity LC-MS assay)
# Format: biochemical
# Description: The EBP immunoaffinity (IA) LC-MS assay measures the potency of small molecule inhibitors of EBP by quantifying their concentration-dependent changes in the enzyme's substrate and product using liquid chromatography atmospheric pressure chemical ionization multiple reaction monitoring mass spectrometry (LC-APCI MRM MS). HEK293T cells were utilized as the source of EBP enzyme. The enzyme was incubated with the small molecule inhibitors at variable concentrations for 30 min. Deuterated form of EBP substrate, zymosterol-d5 (Avanti Polar Lipids, Cat #700068P-1 mg), was then added and the plate was incubated at 37 °C for 4 h. Finally, the sterol isomers were extracted and injected to LC-APCI MRM MS. MRM transition used for the quantification for both zymosterol and dihydrolathosterol (substrate and product of EBP enzymatic reaction, respectively) is 372.3-203.2, CE 30 and DP 80 in positive ion mode. Percent conversion of the zymosterol-d5 to dehydrolathosterol-d5 was used to derive IC50 curves. Tasin-1 (1′-[(4-Methoxyphenyl)sulfonyl]-4-methyl-1,4′-bipiperidine, CAS 792927-06-1) was used as the reference small molecule inhibitor.
# Percent conversion versus the compound concentration data were fit to the following 4-parameter logistic model to generate IC50 curves: […]
# [1] = HEK293T cells as source of EBP enzyme, zymosterol-d5 substrate, inhibitor 30 min, then 37 °C for 4 h, percent conversion to dehydrolathosterol-d5 by LC-APCI MRM MS, read-out: EBP Functional Assay
# T1 sequence (Q15125 whole entry): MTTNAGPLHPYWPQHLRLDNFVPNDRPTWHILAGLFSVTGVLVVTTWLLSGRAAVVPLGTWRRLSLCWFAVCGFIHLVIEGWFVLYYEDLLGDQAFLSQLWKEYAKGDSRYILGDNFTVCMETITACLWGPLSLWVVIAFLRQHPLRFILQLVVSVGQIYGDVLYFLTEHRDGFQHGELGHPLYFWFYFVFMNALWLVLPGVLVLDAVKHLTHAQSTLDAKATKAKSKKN
SMILES,IC50 [1],IC50
"Cc1nc(C(C)(F)F)ccc1S(=O)(=O)N1CC2(CC(N(C)C3CCOCC3)C2)C1 [Example 72, 2-((6-(1,1-difluoroethyl)-2-methylpyridin-3-yl)sulfonyl)-N-methyl-N-(tetrahydro-2H-pyran-4-yl)-2-azaspiro[3.3]heptan-6-amine]",< 0.1 µM,–
"Cc1nc(C(C)(F)F)ccc1S(=O)(=O)N1CC2(CC(N(C)C3COC3)C2)C1 [Example 73, 2-((6-(1,1-difluoroethyl)-2-methylpyridin-3-yl)sulfonyl)-N-methyl-N-(oxetan-3-yl)-2-azaspiro[3.3]heptan-6-amine]",0.1 to 0.5 µM,–
"Cc1nc(C(C)(F)F)ccc1S(=O)(=O)N1CC2(CC(N(C)C3CC4(COC4)C3)C2)C1 (stereo not drawn) [Example 74, 2-((6-(1,1-difluoroethyl)-2-methylpyridin-3-yl)sulfonyl)-N-methyl-N-(2-oxaspiro[3.3]heptan-6-yl)-2-azaspiro[3.3]heptan-6-amine]",< 0.1 µM,–
"Cc1nc(C(C)(F)F)ccc1S(=O)(=O)N1CC2(CC(N(C)CC3CCOCC3)C2)C1 [Example 75, 2-((6-(1,1-difluoroethyl)-2-methylpyridin-3-yl)sulfonyl)-N-methyl-N-((tetrahydro-2H-pyran-4-yl)methyl)-2-azaspiro[3.3]heptan-6-amine]",0.1 to 0.5 µM,–
"Cc1nc(C(F)(F)F)ncc1S(=O)(=O)N1CC2(CC(NC3CCOCC3)C2)C1 [Example 76, 2-((4-methyl-2-(trifluoromethyl)pyrimidin-5-yl)sulfonyl)-N-(tetrahydro-2H-pyran-4-yl)-2-azaspiro[3.3]heptan-6-amine]",0.1 to 0.5 µM,–
"Cc1nc(C(F)(F)F)ncc1S(=O)(=O)N1CC2(CC(NC3COC3)C2)C1 [Example 77, 2-((4-methyl-2-(trifluoromethyl)pyrimidin-5-yl)sulfonyl)-N-(oxetan-3-yl)-2-azaspiro[3.3]heptan-6-amine]",0.5 to 3 µM,–
"Cc1nc(C(F)(F)F)ncc1S(=O)(=O)N1CC2(CC(NC3CC4(COC4)C3)C2)C1 (stereo not drawn) [Example 78, 2-((4-methyl-2-(trifluoromethyl)pyrimidin-5-yl)sulfonyl)-N-(2-oxaspiro[3.3]heptan-6-yl)-2-azaspiro[3.3]heptan-6-amine]",0.1 to 0.5 µM,–
"Cc1nc(C(F)(F)F)ncc1S(=O)(=O)N1CC2(CC(NCC3CCOCC3)C2)C1 [Example 79, 2-((4-methyl-2-(trifluoromethyl)pyrimidin-5-yl)sulfonyl)-N-((tetrahydro-2H-pyran-4-yl)methyl)-2-azaspiro[3.3]heptan-6-amine]",0.1 to 0.5 µM,–
"Cc1nc(C(F)(F)F)ncc1S(=O)(=O)N1CC2(CC(N(C)C3CCOCC3)C2)C1 [Example 80, N-methyl-2-((4-methyl-2-(trifluoromethyl)pyrimidin-5-yl)sulfonyl)-N-(tetrahydro-2H-pyran-4-yl)-2-azaspiro[3.3]heptan-6-amine]",–,< 0.1 µM
"Cc1nc(C(F)(F)F)ncc1S(=O)(=O)N1CC2(CC(N(C)C3COC3)C2)C1 [Example 81, N-methyl-2-((4-methyl-2-(trifluoromethyl)pyrimidin-5-yl)sulfonyl)-N-(oxetan-3-yl)-2-azaspiro[3.3]heptan-6-amine]",0.1 to 0.5 µM,–
"Cc1nc(C(F)(F)F)ncc1S(=O)(=O)N1CC2(CC(N(C)C3CC4(COC4)C3)C2)C1 (stereo not drawn) [Example 82, N-methyl-2-((4-methyl-2-(trifluoromethyl)pyrimidin-5-yl)sulfonyl)-N-(2-oxaspiro[3.3]heptan-6-yl)-2-azaspiro[3.3]heptan-6-amine]",< 0.1 µM,–
"Cc1nc(C(F)(F)F)ncc1S(=O)(=O)N1CC2(CC(N(C)CC3CCOCC3)C2)C1 [Example 83, N-methyl-2-((4-methyl-2-(trifluoromethyl)pyrimidin-5-yl)sulfonyl)-N-((tetrahydro-2H-pyran-4-yl)methyl)-2-azaspiro[3.3]heptan-6-amine]",0.1 to 0.5 µM,–
